Test results reported in article PMC3781304 (American Journal of Cardiovascular Drugs, 2013).
Entries after “also recorded” stand apart in the source; their conditions may differ. Blank lines part the entries; values can stand above or below the molecule they belong to.

Assays:
[1] = Amiodarone study: safety, treatment-emergent adverse events; type: in vivo, healthy volunteers (human)
[2] = Atorvastatin study: safety, treatment-emergent adverse events
[3] = Digoxin study: safety, treatment-emergent adverse events; settings: for Fecal occult bleeding (TEAE): printed under most frequent and under bleeding-related TEAEs
[4] = Digoxin drug-drug interaction study: edoxaban pharmacokinetics
[5] = Dronedarone study: safety, treatment-emergent adverse events
[6] = Dronedarone drug-drug interaction study: edoxaban pharmacokinetics
[7] = cited from earlier work
[8] = Quinidine drug-drug interaction study: edoxaban pharmacokinetics
[9] = Verapamil study: safety, treatment-emergent adverse events
[10] = Edoxaban administered alone, pharmacokinetics across the 6 studies
[11] = Amiodarone drug-drug interaction study: edoxaban pharmacokinetics; settings: human, in vivo, 60 mg
[12] = Quinidine study: safety, treatment-emergent adverse events; settings: for Fecal occult bleeding (TEAE): printed under most frequent and under bleeding-related TEAEs
[13] = Verapamil drug-drug interaction study: edoxaban pharmacokinetics
[14] = Atorvastatin drug-drug interaction study: edoxaban pharmacokinetics; settings: human, in vivo, 60 mg
[15] = Tolerability across the 6 studies; type: in vivo, healthy subjects (human); settings: edoxaban alone or coadministered with the 6 cardiovascular drugs

SMILES: CCCCc1oc2ccccc2c1C(=O)c1cc(I)c(OCCN(CC)CC)c(I)c1 [Amiodarone, amiodarone]
- Contact dermatitis (TEAE) [1]: 2 (6.9%) n (%)
- Diarrhea (TEAE) [1]: 0 n (%)
- Fecal occult bleeding (bleeding-related TEAE) [1]: 0 n (%)
- Gingival bleeding (bleeding-related TEAE) [1]: 0 n (%)
- Menorrhagia (bleeding-related TEAE) [1]: 0 n (%)
- Pain in extremity (TEAE) [1]: 0 n (%)
- Subjects reporting ≥1 TEAE [1]: 7 (24.1 %) n (%)
- Subjects reporting ≥1 treatment-related TEAE [1]: 1 (3.4 %) n (%)

SMILES: CC(C)c1c(C(=O)Nc2ccccc2)c(-c2ccccc2)c(-c2ccc(F)cc2)n1CC[C@@H](O)C[C@@H](O)CC(=O)O [Atorvastatin, atorvastatin]
- Constipation (TEAE) [2]: 2 (6.3%) n (%)
- Dysmenorrhea (bleeding-related TEAE) [2]: 0 n (%)
- Fecal occult bleeding (bleeding-related TEAE) [2]: 0 n (%)
- Nasal congestion (TEAE) [2]: 1 (3.1%) n (%)
- Pharyngolaryngeal pain (TEAE) [2]: 1 (3.1%) n (%)
- Subjects reporting ≥1 TEAE [2]: 6 (18.8%) n (%)
- Subjects reporting ≥1 treatment-related TEAE [2]: 3 (9.4%) n (%)

SMILES: C[C@H]1O[C@@H](O[C@H]2[C@@H](O)C[C@H](O[C@H]3[C@@H](O)C[C@H](O[C@H]4CC[C@@]5(C)[C@H](CC[C@@H]6[C@@H]5C[C@@H](O)[C@]5(C)[C@@H](C7=CC(=O)OC7)CC[C@]65O)C4)O[C@@H]3C)O[C@@H]2C)C[C@H](O)[C@@H]1O [Digoxin, digoxin]
- Dizziness (TEAE) [3]: 0 n (%)
- Headache (TEAE) [3]: 2 (8.3 %) n (%)
- Nausea (TEAE) [3]: 1 (4.2 %) n (%)
- Subjects reporting ≥1 TEAE [3]: 8 (33.3 %) n (%)
- Subjects reporting ≥1 treatment-related TEAE [3]: 1 (4.2 %) n (%)
- Fecal occult bleeding (TEAE) [3]: 3 (12.5 %) n (%)
- Effect of coadministration on edoxaban exposure/PK (in words) ([4]; digoxin study): minimal effects; also recorded: relatively minor effects; also recorded: did not significantly affect exposure

SMILES: CCCCc1oc2ccc(NS(C)(=O)=O)cc2c1C(=O)c1ccc(OCCCN(CCCC)CCCC)cc1 [Dronedarone, dronedarone]
- Bleeding-related TEAEs [5]: 0 n (%)
- Headache (TEAE) [5]: 0 n (%)
- Subjects reporting ≥1 TEAE [5]: 4 (11.8 %) n (%)
- Subjects reporting ≥1 treatment-related TEAE [5]: 1 (2.9 %) n (%)
- Effect of coadministration on edoxaban exposure (in words) ([6]; dronedarone study): increased edoxaban exposure; also recorded: significantly increased exposure

- AUC(0-inf) ([8]; human, in vivo, 60 mg): 1580 ng·h/mL
- Cmax ([8]; human, in vivo, 60 mg): 223 ng/mL
- Tmax ([8]; human, in vivo, 60 mg): 1.48 h
- concentration at 24 h ([8]; human, in vivo, 60 mg): 11 ng/mL
- half-life ([8]; human, in vivo, 60 mg): 6.43 h
- AUC(0-t) ([8]; human, in vivo, 60 mg, Edoxaban AUC0–24, quinidine study, mean (SD)): 1450 ng·h/mL
- AUC(0-t) ([8]; human, in vivo, 60 mg, Edoxaban AUClast, quinidine study, mean (SD)): 1440 ng·h/mL
- Edoxaban AUC0–24 ([8]; quinidine study, mean (SD)): 1449.2 (328.6) ng·h/mL
- AUC ([4]; human, in vivo, 60 mg): 1960 ng·h/mL
- concentration at 24 h ([4]; human, in vivo, 60 mg): 24.5 ng/mL
- half-life ([4]; human, in vivo, 60 mg): 9.83 h
- Time of peak edoxaban concentrations postdose ([10]; across the studies): 1 to 3 h
- AUC(0-inf) ([10]; human, in vivo, 60 mg): 1580 to 1970 ng·h/mL
- Cmax ([10]; human, in vivo, 60 mg): 223 to 296 ng/mL
- AUC(0-inf) [11]: 1740 ng·h/mL
- AUC(0-t) [11]: 1720 ng·h/mL
- Cmax [11]: 251 ng/mL
- half-life [11]: 12.2 h
- AUC(0-t) ([13]; human, in vivo, 60 mg): 1440 ng·h/mL
- Cmax ([13]; human, in vivo, 60 mg): 226 ng/mL
- Tmax ([13]; human, in vivo, 60 mg): 1.48 h
- concentration at 24 h ([13]; human, in vivo, 60 mg): 11 ng/mL
- half-life ([13]; human, in vivo, 60 mg): 7.43 h
- half-life ([6]; human, in vivo, 60 mg): 10.2 h
- AUC(0-inf) [14]: 1970 ng·h/mL
- Cmax [14]: 282 ng/mL
- Tmax [14]: 1.02 h
- concentration at 24 h [14]: 12.6 ng/mL
- half-life [14]: 12 h
SMILES: CN1CCc2nc(C(=O)N[C@@H]3C[C@@H](C(=O)N(C)C)CC[C@@H]3NC(=O)C(=O)Nc3ccc(Cl)cn3)sc2C1 [Edoxaban, edoxaban]
- Dizziness (TEAE) [3]: 1 (4.2 %) n (%)
- Headache (TEAE) [3]: 0 n (%)
- Nausea (TEAE) [3]: 1 (4.2 %) n (%)
- Subjects reporting ≥1 TEAE [3]: 19 (79.2 %) n (%)
- Subjects reporting ≥1 treatment-related TEAE [3]: 1 (4.2 %) n (%)
- Fecal occult bleeding (TEAE) [3]: 1 (4.2 %) n (%)
- Systemically absorbed drug eliminated via renal excretion [7]: approximately 50%
- Mean terminal elimination half-life (t½) ([7]; healthy volunteers): 8.75 to 10.4 h
- Time of peak concentrations postdose ([7]; healthy volunteers): 1 to 2 h
- Bleeding-related TEAEs [5]: 0 n (%)
- Headache (TEAE) [5]: 0 n (%)
- Subjects reporting ≥1 TEAE [5]: 0 n (%)
- Subjects reporting ≥1 treatment-related TEAE [5]: 0 n (%)
- Contact dermatitis (TEAE) [1]: 0 n (%)
- Diarrhea (TEAE) [1]: 1 (3.3 %) n (%)
- Fecal occult bleeding (bleeding-related TEAE) [1]: 0 n (%)
- Gingival bleeding (bleeding-related TEAE) [1]: 0 n (%)
- Menorrhagia (bleeding-related TEAE) [1]: 0 n (%)
- Pain in extremity (TEAE) [1]: 1 (3.3 %) n (%)
- Subjects reporting ≥1 TEAE [1]: 5 (16.7 %) n (%)
- Constipation (TEAE) [9]: 1 (3.0 %) n (%)
- Epistaxis (bleeding-related TEAE) [9]: 0 n (%)
- Fecal occult bleeding (bleeding-related TEAE) [9]: 1 (3.0 %) n (%)
- Headache (TEAE) [9]: 0 n (%)
- Menorrhagia (bleeding-related TEAE) [9]: 0 n (%)
- Occular hyperemia (TEAE) [9]: 0 n (%)
- Subjects reporting ≥1 TEAE [9]: 4 (12.1 %) n (%)
- Subjects reporting ≥1 treatment-related TEAE [9]: 1 (3.0 %) n (%)
- Constipation (TEAE) [2]: 0 n (%)
- Dysmenorrhea (bleeding-related TEAE) [2]: 1 (3.1%) n (%)
- Fecal occult bleeding (bleeding-related TEAE) [2]: 2 (6.3%) n (%)
- Nasal congestion (TEAE) [2]: 0 n (%)
- Pharyngolaryngeal pain (TEAE) [2]: 0 n (%)
- Subjects reporting ≥1 TEAE [2]: 4 (13.3%) n (%)
- Subjects reporting ≥1 treatment-related TEAE [2]: 1 (3.3%) n (%)
- Blood creatinine increased (TEAE) [12]: 0 n (%)
- Chest pain (TEAE) [12]: 1 (2.7 %) n (%)
- Epistaxis (bleeding-related TEAE) [12]: 0 n (%)
- Headache (TEAE) [12]: 0 n (%)
- Hematochezia (bleeding-related TEAE) [12]: 1 (2.7 %) n (%)
- Irregular menstruation (bleeding-related TEAE) [12]: 1 (2.7 %) n (%)
- Menorrhagia (bleeding-related TEAE) [12]: 1 (2.7 %) n (%)
- Nausea (TEAE) [12]: 0 n (%)
- Subjects reporting ≥1 TEAE [12]: 5 (13.5 %) n (%)
- Subjects reporting ≥1 treatment-related TEAE [12]: 3 (8.1 %) n (%)
- Fecal occult bleeding (TEAE) [12]: 2 (5.4 %) n (%)
- Tolerability (in words) [15]: well tolerated

SMILES: C=C[C@H]1C[N@@]2CC[C@H]1C[C@@H]2[C@@H](O)c1ccnc2ccc(OC)cc12 [Quinidine, quinidine]
- Effect of coadministration on edoxaban exposure (in words) ([8]; quinidine study): increased edoxaban exposure; also recorded: significantly increased exposure
- Blood creatinine increased (TEAE) [12]: 1 (2.8 %) n (%)
- Chest pain (TEAE) [12]: 0 n (%)
- Epistaxis (bleeding-related TEAE) [12]: 1 (2.8 %) n (%)
- Headache (TEAE) [12]: 3 (8.3 %) n (%)
- Hematochezia (bleeding-related TEAE) [12]: 0 n (%)
- Irregular menstruation (bleeding-related TEAE) [12]: 0 n (%)
- Menorrhagia (bleeding-related TEAE) [12]: 0 n (%)
- Nausea (TEAE) [12]: 2 (5.6 %) n (%)
- Subjects reporting ≥1 TEAE [12]: 11 (30.6 %) n (%)
- Subjects reporting ≥1 treatment-related TEAE [12]: 4 (11.1 %) n (%)
- Subjects withdrawn with QTc prolongation ([12]; after quinidine dosing): 1 subject
- Fecal occult bleeding (TEAE) [12]: 0 n (%)

SMILES: COc1ccc(CCN(C)CCCC(C#N)(c2ccc(OC)c(OC)c2)C(C)C)cc1OC (stereo not drawn) [Verapamil, verapamil]
- Constipation (TEAE) [9]: 4 (12.1 %) n (%)
- Epistaxis (bleeding-related TEAE) [9]: 0 n (%)
- Fecal occult bleeding (bleeding-related TEAE) [9]: 0 n (%)
- Headache (TEAE) [9]: 3 (9.1 %) n (%)
- Menorrhagia (bleeding-related TEAE) [9]: 1 (3.0 %) n (%)
- Occular hyperemia (TEAE) [9]: 1 (3.0 %) n (%)
- Subjects reporting ≥1 TEAE [9]: 13 (39.4 %) n (%)
- Subjects reporting ≥1 treatment-related TEAE [9]: 9 (27.2 %) n (%)
- Subjects withdrawn with abnormal ECG ([9]; following verapamil monotherapy): 3 subjects
- Effect of coadministration on edoxaban exposure (in words) ([13]; verapamil study): increased edoxaban exposure; also recorded: significantly increased exposure
